Laboratory results reported in patent US20220033407A1, “N-(pyridin-2-ylsulfonyl)cyclopropanecarboxamide Derivatives and their Use in the Treatment of Disease” (NOVARTIS AG, priority 2018, published 2022).

Legend:
[1] = target: T1, delF508-CFTR (Homo sapiens, UniProt P13569, DEL508-508); assay: delF508-CFTR functional activity in primary human bronchial epithelial cells (HBECs), Multi-Transepithelial Clamp Circuit (MTECC-24) assay, equivalent short circuit current; type: cell-based; details: primary CF HBECs; for MTECC24 CFHBEC-Amax %: relative to reference combination 2 μM 3-(6-(1-(2,2-difluorobenzo[d][1,3]dioxol-5-yl)cyclopropane-1-carboxamido)-3-methylpyridin-2-yl)benzoic acid (24 h) + 0.5 μM N-(2,4-di-tert-butyl-5-hydroxyphenyl)-4-oxo-1,4-dihydroquinoline-3-carboxamide; for EC50: test compound added 24 h before assay, potentiator (S)-3-amino-6-methoxy-N-(3,3,3-trifluoro-2-hydroxy-2-methylpropyl)-5-(trifluoromethyl)picolinamide present at assay, mean of at least two replicates, read-out: MTECC24 CFHBEC-EC50
T1 construct: functional activity of the CFTR channel (Chloride ion transport) in patient derived primary human bronchial epithelial cells; host or cells: patient-derived primary human bronchial epithelial cells (HBECs), delF508-CFTR
Excerpt: Measurement of delF508-CFTR Functional Activity in Primary Human Bronchial Epithelial Cells (HBECs) Using Multi-Transepithelial Clamp Circuit (MTECC-24) Assay
This assay measures the functional activity of the CFTR channel (Chloride ion transport) in patient derived primary human bronchial epithelial cells with forskolin activation and in the presence of the CFTR corrector wherein the corrector is a compound of the invention and the potentiator is (S)-3-amino-6-methoxy-N-(3,3,3-trifluoro-2-hydroxy-2-methylpropyl)-5-(trifluoromethyl)picolinamide.
Primary human delF508-CFTR bronchial epithelial cells were purchased from Asterand and cultured according to previously established methods (Fulcher et al. (2005) Methods Mol Med 107: 183-206). Briefly, vendor supplied cells were rapidly defrosted and added to a T175 flask in 50 mL growth media (Lonza BEBM media with Lonza BEGM singlequots). Media was replaced after 24 h and then cells were fed every other day until cells were 80-90% confluent, at which point cells were cryopreserved. These P1 vials were thawed at 37° C. as needed and added to T175 flasks in 50 mL growth media at 5×10^5 cells/flask. Media was replaced after 24 h, and then cells were fed every other day until 80-90% confluent. Cells were lifted with 5 mL Accutase at 37° C. for 5 minutes, centrifuged at 1000 rpms for 5 min (300 g), and resuspended in differentiation media (50% BEBM in DMEM, BEGM singlequots, all trans retinoic acid (5×10·8M)). Cells were then counted and cell suspension was added to collagen coated inserts at 3×10^4 cells/insert in 0.15 mL with 0.5 mL differentiation media on the basolateral side.
Apical and basolateral media were replaced on alternate days, and following day 7 (or when confluent plus 2 days), air liquid interface was established for approximately two weeks by removal of apical media. One day prior to use on the MTECC24 system (EP-Devices, EP Design, Belgium), 0.15 mL of warmed (37° C.) PBS was added to the apical surface of the cultures and returned to humidifier (37° C., 5% CO2 incubator) for 30 min before aspirating the apical surface to remove any mucus.
Compound treatments were then prepared. Compound dilutions, typically a 10 point concentration response with 1 in 3 dilution steps, were made in 100% DMSO before dilution 1 in 1000 into differentiation medium with a final DMSO concentration of 0.1% or 0.2% for the study. Compound containing medium was then transferred into the wells of a 24 well plate at 0.5 mL per well and warmed for 30 min in a 37° C. incubator prior to transferring washed inserts into the compound containing plates. Cells were incubated in compound containing medium (basolateral only) for 24 h prior to measurement in the MTECC24 system.
Following 24 hr treatment, compound dilutions were prepared again, diluted 1 in 1000 into 37° C. assay medium (F-12 Coon's modified, 20 mM HEPES pH7.4 with TRIS Base, No FCS or bicarbonate). Cells which were treated for 24 h with test compound were then transferred into plates containing 0.75 mL compound treatment in assay medium (basolateral) and 0.25 mL of the compound containing assay medium was added to the apical surface. The plates were then transferred to the heated plate compartments of the MTECC24 system for 45 min prior to measurements (this can also be done in a non-CO2 37° C. humidified incubator). Basolateral temperature should not exceed 36.5° C. and apical temperature should be approximately 35.5° C.
Modulators were added sequentially as follows while the MTECC24 instrument recorded the equivalent short circuit current (Ieq)
Prior to dilution into F-12 medium the stocks are as follows: Amiloride stock is 10 mM in H2O
Forskolin Stock is 10 mM in 100% DMSO
(S)-3-amino-6-methoxy-N-(3,3,3-trifluoro-2-hydroxy-2-methylpropyl)-5-(trifluoromethyl)picolinamide is 0.5 mM stock in 100% DMSO INH-172 (4-[[4-Oxo-2-thioxo-3-[3-trifluoromethyl)phenyl]-5-thiazolidinylidene]methyl]benzoic acid) stock is 30 mM in 100% DMSO […]

[2] = target: T2, delF508-CFTR-HRP (Homo sapiens, UniProt P13569, DEL508-508); assay: Measurement of delF508-CFTR-HRP surface expression in CFBE41o- cells (HRP luminescence); type: cell-based; details: for Emax: CFBE41o-, read-out: DelF508-CFTR-HRP Amax %; for EC50: mean of at least two replicates;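 on DelF508-CFTR-HRP Amax %: percent efficacy relative to a reference CFTR corrector compound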
T2 construct: expressed in transfected cells
How it was run: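 Stably transfected CFBE41o- cells carrying HRP in the fourth extracellular loop of delF508-CFTR, induced with 500 ng/mL doxycycline for 48 h, then compound-treated 24 h at 37° C (10-point, 3-fold, top 10 μM). Surface HRP detected by luminescent substrate; EC50 from logistic fit, triplicates, normalized to lowest-concentration median.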

T1 sequence (P13569 with tags, fused parts or gaps DEL508-508): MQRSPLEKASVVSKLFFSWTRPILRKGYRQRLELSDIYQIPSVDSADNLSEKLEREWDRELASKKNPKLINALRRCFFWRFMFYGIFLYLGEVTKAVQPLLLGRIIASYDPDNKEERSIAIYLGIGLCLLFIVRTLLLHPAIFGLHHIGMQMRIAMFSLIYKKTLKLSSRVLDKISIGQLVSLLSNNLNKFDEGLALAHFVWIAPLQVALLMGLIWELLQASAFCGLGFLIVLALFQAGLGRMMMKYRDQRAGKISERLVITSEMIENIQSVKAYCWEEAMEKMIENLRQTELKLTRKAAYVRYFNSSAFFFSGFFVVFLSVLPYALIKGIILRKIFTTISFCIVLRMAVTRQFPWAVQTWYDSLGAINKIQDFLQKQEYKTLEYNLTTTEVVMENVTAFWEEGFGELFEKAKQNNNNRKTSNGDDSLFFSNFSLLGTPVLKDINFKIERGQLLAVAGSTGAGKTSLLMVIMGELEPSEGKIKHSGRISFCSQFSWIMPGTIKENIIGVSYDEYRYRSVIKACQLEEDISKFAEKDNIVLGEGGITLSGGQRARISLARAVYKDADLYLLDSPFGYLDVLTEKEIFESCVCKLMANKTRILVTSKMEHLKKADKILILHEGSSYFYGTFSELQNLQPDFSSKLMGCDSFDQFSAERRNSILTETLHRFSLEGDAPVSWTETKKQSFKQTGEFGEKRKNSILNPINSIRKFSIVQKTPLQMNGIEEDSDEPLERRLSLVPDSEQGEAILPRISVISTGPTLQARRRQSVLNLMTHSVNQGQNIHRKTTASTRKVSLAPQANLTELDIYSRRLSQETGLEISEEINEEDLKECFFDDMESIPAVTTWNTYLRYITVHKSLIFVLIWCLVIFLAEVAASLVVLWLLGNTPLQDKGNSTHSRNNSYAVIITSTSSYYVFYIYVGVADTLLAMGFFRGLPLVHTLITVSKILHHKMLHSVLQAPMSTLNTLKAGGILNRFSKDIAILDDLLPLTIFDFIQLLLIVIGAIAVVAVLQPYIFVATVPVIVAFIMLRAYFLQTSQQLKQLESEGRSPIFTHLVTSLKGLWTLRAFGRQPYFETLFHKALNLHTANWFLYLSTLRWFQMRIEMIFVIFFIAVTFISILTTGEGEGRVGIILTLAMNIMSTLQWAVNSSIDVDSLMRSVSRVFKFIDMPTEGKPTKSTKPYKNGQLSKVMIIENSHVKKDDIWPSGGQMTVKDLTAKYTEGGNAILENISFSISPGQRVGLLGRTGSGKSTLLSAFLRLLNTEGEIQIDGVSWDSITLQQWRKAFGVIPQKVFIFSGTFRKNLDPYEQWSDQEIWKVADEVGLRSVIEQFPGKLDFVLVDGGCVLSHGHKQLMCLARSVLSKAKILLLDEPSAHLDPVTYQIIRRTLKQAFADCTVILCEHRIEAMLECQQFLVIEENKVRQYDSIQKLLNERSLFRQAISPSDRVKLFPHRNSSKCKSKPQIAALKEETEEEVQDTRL
T2 sequence (P13569 with tags, fused parts or gaps DEL508-508): as above

Compound | MTECC24 CFHBEC-Amax % [1] | EC50 [1] | Emax [2] | EC50 [2] | DelF508-CFTR-HRP Amax % [2]
Cc1ccc(C2CCC(F)(F)CC2)c(OC2(C(=O)NS(=O)(=O)c3cccc(N[C@H](C)CO)n3)CC2)c1 [Example 3-5] | 64% | 52 nM | 363% | 3970 nM | 
Cc1ccc(C2CCC(C)(C)OC2)c(OC2(C(=O)NS(=O)(=O)c3cccc(N4CCC(O)(c5ccc(Cl)cc5)CC4)n3)CC2)c1 (single isomer, unassigned) [Example 11-1-2, N-((6-(4-(4-chlorophenyl)-4-hydroxypiperidin-1-yl)pyridin-2-yl)sulfonyl)-1-(2-(6,6-dimethyltetrahydro-2H-pyran-3-yl)-5-methylphenoxy)cyclopropane-1-carboxamide] | 191.0% | 176 nM |  | 900 nM | 819.2%
Cc1ccc(-c2cc(F)cc(OCC(C)C)c2)c(OC2(C(=O)NS(=O)(=O)c3cccc(N)n3)CC2)c1 [Example 1-2, N-((6-Aminopyridin-2-yl)sulfonyl)-1-((3′-fluoro-5′-isobutoxy-4-methyl-[1,1′-biphenyl]-2-yl)oxy)cyclopropane-1-carboxamide] | 89% | 45 nM | 136% | 2440 nM | 
Cc1ccc(-c2cccc(OC(F)(F)F)c2)c(OC2(C(=O)NS(=O)(=O)c3cccc(N4CC(C)(O)C4)n3)CC2)c1 [Example 5-8, N-((6-(3-Hydroxy-3-methylazetidin-1-yl)pyridin-2-yl)sulfonyl)-1-((4-methyl-3′-(trifluoromethoxy)-[1,1′-biphenyl]-2-yl)oxy)cyclopropane-1-carboxamide] | 57% | 6 nM | 371% | 2480 nM | 
O=C(NS(=O)(=O)c1cccc(N2CC[C@H](O)C2)n1)C1(Oc2cc(Cl)ccc2N2CCC(C(F)(F)F)CC2)CC1 [Example 9-16, (S)-1-(5-Chloro-2-(4-(trifluoromethyl)piperidin-1-yl)phenoxy)-N-((6-(3-hydroxypyrrolidin-1-yl)pyridin-2-yl)sulfonyl)cyclopropanecarboxamide] | 138.2% | 865 nM | 317% | 2200 nM | 
Cc1ccc(C2CCCCC2)c(OC2(C(=O)NS(=O)(=O)c3cccc(N4CCC5(CCCC5N)CC4)n3)CC2)c1 (single isomer, unassigned) [Example 2-32-1, N-((6-(1-Amino-8-azaspiro[4.5]decan-8-yl)pyridin-2-yl)sulfonyl)-1-(2-cyclohexyl-5-methylphenoxy)cyclopropanecarboxamide] | 78% | 12 nM |  | 3350 nM | 537%
Cc1ccc(C2(C(F)(F)F)CC2)c(OC2(C(=O)NS(=O)(=O)c3cccc(N4CC(C)(O)C4)n3)CC2)c1 [Example 4-17, N-((6-(3-Hydroxy-3-methylazetidin-1-yl)pyridin-2-yl)sulfonyl)-1-(5-methyl-2-(1-(trifluoromethyl)cyclopropy)phenoxy)cyclopropane-1-carboxamide] | 55% | 76 nM | 156% | 4030 nM | 
Cc1ccc(C2CCCCC2)c(OC2(C(=O)NS(=O)(=O)c3cccc(N4CCOC(C)C4)n3)CC2)c1 (stereo not drawn) [Example 2-51, 1-(2-Cyclohexyl-5-methylphenoxy)-N-((6-(2-methylmorpholino)pyridin-2-yl)sulfonyl)cyclopropane-1-carboxamide] | 85% | 3 nM | 621% | 1760 nM | 
CC1(O)CCN(c2cccc(S(=O)(=O)NC(=O)C3(Oc4cc(Cl)ccc4C4CC5(CCC5)C4)CCCC3)n2)C1 (single isomer, unassigned) [Example 7-18-1, 1-(5-Chloro-2-(spiro[3.3]heptan-2-yl)phenoxy)-N-((6-(3-hydroxy-3-methylpyrrolidin-1-yl)pyridin-2-yl)sulfonyl)cyclopentane-1-carboxamide] |  |  |  | 900 nM | 493.9%
O=C(NS(=O)(=O)c1cccc(N2CC[C@H](O)C2)n1)C1(Oc2cc(Cl)ccc2N2CCC(O)(c3ccccn3)CC2)CC1 [Example 9-37, (S)-1-(5-Chloro-2-(4-hydroxy-4-(pyridin-2-yl)piperidin-1-yl)phenoxy)-N-((6-(3-hydroxypyrrolidin-1-yl)pyridin-2-yl)sulfonyl)cyclopropanecarboxamide] |  |  | 12.6% | 80 nM | 
O=C(NS(=O)(=O)c1cccc(N2CC[C@@H](O)C2)n1)C1(Oc2cc(Cl)ccc2N2CC3(CCCCC3)C2)CC1 [Example 9-6, (R)-1-(5-Chloro-2-(2-azaspiro[3.5]nonan-2-yl)phenoxy)-N-((6-(3-hydroxypyrrolidin-1-yl)pyridin-2-yl)sulfonyl)cyclopropanecarboxamide] |  |  | 388% | 910 nM | 
O=C(NS(=O)(=O)c1cccc(N2CC[C@H](O)C2)n1)C1(Oc2cc(Cl)ccc2-c2ccc3c(c2)OC(F)(F)O3)CC1 [Example 5-15, (S)-1-(5-Chloro-2-(2,2-difluorobenzo[d][1,3]dioxol-5-yl)phenoxy)-N-((6-(3-hydroxypyrrolidin-1-yl)pyridin-2-yl)sulfonyl)cyclopropane-1-carboxamide] |  |  | 361% | 2540 nM | 
O=C(NS(=O)(=O)c1cccc(N2CC[C@H](O)C2)n1)C1(Oc2cc(Cl)ccc2N2CCC3(CC2)CC3)CC1 [Example 9-9, (S)-1-(5-Chloro-2-(6-azaspiro[2.5]octan-6-yl)phenoxy)-N-((6-(3-hydroxypyrrolidin-1-yl)pyridin-2-yl)sulfonyl)cyclopropanecarboxamide] |  |  |  | 1650 nM | 
Cc1ccc(OC2CCCC2)c(OC2(C(=O)NS(=O)(=O)c3cccc(N4CCC(C)(C#N)CC4)n3)CC2)c1 [Example 6-2, N-((6-(4-cyano-4-methylpiperidin-1-yl)pyridin-2-yl)sulfonyl)-1-(2-(cyclopentyloxy)-5-methylphenoxy)cyclopropanecarboxamide] |  |  | 289% | 2180 nM | 
O=C(NS(=O)(=O)c1cccc(N2CC[C@H](O)C2)n1)C1(Oc2cc(Cl)ccc2-c2ccc3occc3c2)CC1 [Example 5-12, (S)-1-(2-(Benzofuran-5-yl)-5-chlorophenoxy)-N-((6-(3-hydroxypyrrolidin-1-yl)pyridin-2-yl)sulfonyl)cyclopropane-1-carboxamide] |  |  | 204% | 2470 nM | 
